{
  "source": "patent US20160199349A1",
  "about": "(priority 2012, published 2016)",
  "key": {"rat": {"test_system": "rat", "assay": "animal or person", "assay_type": "in vivo"}, "[1]": {"test_system": "male albino rats (Sprague Dawley)", "settings": "rat, in vivo, ip"}},
  "note": "Several values for one entry are separate records, joined by “and”; a condition that tells them apart may be missing. Equal values may be shown once.",
  "data": [
    {"smiles": "CC(C)Cc1ccc(C(C)C(=O)O)cc1", "note": "(stereo not drawn) [ibuprofen]", "values": [
      {"measurement": "ED50", "setting": "rat; Rattus norvegicus, ip, 0.5 h, read-out: ED50 (95% CI)", "value": 139, "unit": "mg/kg"},
      {"measurement": "timepoint of peak effect", "setting": "rat; rat, in vivo", "value": 30, "unit": "min p. appl."},
      {"measurement": "ED25 (95% CI)", "setting": "[1]", "value": "117 mg/kg and 117 (90.1-196) mg/kg"}
    ]}
  ]
}
